Entries after “also recorded” stand apart in the source; their conditions may differ. Read-outs that look alike come from different tables or passages of the source.
Assays:
[1] = molecular target: T1, AMPK α1β2γ3 (Homo sapiens, UniProt O43741+Q13131+Q9UGI9); assay: Protection of pAMPK α-pThr172/174 from PP2Aα (slot-blot ELISA); type: biochemical
T1 construct: Recombinant full-length AMPK heterotrimeric complexes α1β1γ1, α1β2γ1, α1β2γ3, α2β1γ1, α2β2γ1 and α2β2γ3 were cloned; 6X-His (N); made in house; host or cells: E. coli BL21-CodonPlus (DE3)-RIPL
T1 sequence (Q13131 whole entry): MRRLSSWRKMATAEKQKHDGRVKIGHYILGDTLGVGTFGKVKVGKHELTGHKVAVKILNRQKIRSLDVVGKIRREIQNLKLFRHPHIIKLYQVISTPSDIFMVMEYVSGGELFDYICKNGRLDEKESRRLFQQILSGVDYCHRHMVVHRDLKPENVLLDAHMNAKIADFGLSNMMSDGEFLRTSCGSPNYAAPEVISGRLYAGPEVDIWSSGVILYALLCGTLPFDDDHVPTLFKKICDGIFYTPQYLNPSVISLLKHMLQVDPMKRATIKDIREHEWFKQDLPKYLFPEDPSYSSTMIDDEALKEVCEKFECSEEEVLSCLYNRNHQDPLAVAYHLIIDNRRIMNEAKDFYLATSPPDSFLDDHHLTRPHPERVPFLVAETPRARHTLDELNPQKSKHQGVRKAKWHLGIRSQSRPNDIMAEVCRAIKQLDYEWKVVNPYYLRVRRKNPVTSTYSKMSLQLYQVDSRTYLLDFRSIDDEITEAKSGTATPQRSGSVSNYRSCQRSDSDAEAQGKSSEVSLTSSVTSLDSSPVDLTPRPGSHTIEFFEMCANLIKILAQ
T1 sequence (O43741 whole entry): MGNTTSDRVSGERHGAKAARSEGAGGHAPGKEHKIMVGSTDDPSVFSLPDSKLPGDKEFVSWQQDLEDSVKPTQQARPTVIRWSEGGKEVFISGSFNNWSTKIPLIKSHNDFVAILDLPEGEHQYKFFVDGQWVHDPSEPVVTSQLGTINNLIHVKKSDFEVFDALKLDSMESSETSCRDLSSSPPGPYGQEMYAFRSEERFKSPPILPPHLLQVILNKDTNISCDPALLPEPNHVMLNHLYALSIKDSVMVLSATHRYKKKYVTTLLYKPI
T1 sequence (Q9UGI9 whole entry): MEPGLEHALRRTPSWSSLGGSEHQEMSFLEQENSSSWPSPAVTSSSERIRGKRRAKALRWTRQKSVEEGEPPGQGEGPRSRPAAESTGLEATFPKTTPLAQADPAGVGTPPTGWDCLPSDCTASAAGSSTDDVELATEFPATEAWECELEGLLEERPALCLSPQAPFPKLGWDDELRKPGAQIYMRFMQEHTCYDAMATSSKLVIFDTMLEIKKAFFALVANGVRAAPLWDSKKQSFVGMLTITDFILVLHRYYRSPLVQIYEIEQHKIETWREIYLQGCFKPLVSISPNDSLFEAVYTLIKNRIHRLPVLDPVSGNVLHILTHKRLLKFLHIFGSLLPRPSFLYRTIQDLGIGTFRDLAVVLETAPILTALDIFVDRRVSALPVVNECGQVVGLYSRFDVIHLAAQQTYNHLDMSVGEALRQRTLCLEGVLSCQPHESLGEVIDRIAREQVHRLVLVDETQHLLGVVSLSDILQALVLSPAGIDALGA
Description: (§1) Test compound was previously diluted in half-log increments, starting at 40 μM in 100% DMSO, diluted 10-fold in assay buffer and dispensed into a microtitre plate. After 15 min at room temperature, phosphatase was added to the mixture and the reaction was allowed to proceed for 60 min at room temperature. Reactions were quenched by the addition of okadaic acid, and transferred to PVDF membrane using the slot-blot apparatus and subjected to immunoblotting. Phosphatase sensitivity was similarly assessed by subjecting pAMPK to a phosphatase (PP2Aα) treatment using various concentrations and incubation times. The concentration of phosphatase was expressed as nmol of PP2Aα per minute per nmol of pAMPK in the reaction.
(§2) The membrane was blocked with Western Blot Blocking Buffer Reagent (Li-Cor) for 3–4 h at room temperature. […] Following the wash step, goat anti-rabbit 800CW (Rockland) at 1:10000 dilution was used as a secondary antibody. Blots were visualized using the Li-Cor Odyssey infrared imaging system and signal quantification was performed using the Odyssey software.
(§3) Data are mean (n=2), and curves were generated using best-fit values.

[2] = molecular target: T2, AMPK α2β2γ1 (Homo sapiens, UniProt O43741+P54619+P54646); assay: as above; type: biochemical
T2 construct: Recombinant full-length AMPK heterotrimeric complexes α1β1γ1, α1β2γ1, α1β2γ3, α2β1γ1, α2β2γ1 and α2β2γ3 were cloned; 6X-His (N); made in house; host or cells: E. coli BL21-CodonPlus (DE3)-RIPL
T2 sequence (P54646 whole entry): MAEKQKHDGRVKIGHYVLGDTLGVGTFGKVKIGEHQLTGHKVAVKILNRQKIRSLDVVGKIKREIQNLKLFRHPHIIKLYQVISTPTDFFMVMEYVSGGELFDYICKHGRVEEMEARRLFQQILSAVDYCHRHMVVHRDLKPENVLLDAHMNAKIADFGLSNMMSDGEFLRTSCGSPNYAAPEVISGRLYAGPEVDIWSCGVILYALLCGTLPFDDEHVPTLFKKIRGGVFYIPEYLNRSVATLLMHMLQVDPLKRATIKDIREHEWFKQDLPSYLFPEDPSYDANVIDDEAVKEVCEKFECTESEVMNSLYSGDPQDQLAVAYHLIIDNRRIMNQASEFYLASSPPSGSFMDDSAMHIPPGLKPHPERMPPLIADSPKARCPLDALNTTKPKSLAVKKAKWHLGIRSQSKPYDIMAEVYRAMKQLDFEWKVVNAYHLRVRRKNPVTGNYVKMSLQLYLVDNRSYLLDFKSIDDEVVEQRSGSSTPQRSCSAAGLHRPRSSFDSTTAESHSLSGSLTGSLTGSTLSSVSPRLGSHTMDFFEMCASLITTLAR
T2 sequence (O43741 whole entry): as the sequence (O43741 whole entry) above
T2 sequence (P54619 whole entry): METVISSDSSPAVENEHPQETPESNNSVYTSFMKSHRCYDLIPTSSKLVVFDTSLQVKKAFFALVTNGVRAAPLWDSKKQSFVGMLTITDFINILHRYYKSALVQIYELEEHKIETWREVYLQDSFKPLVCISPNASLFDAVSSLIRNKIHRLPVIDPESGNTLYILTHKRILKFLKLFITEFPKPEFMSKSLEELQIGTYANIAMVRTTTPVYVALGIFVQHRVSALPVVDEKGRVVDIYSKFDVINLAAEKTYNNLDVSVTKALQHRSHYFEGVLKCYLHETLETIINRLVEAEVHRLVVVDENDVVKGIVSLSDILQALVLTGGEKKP
Description: as §1, §2, §3

[3] = molecular target: T3, AMPK α2β1γ1 (Homo sapiens, UniProt P54619+P54646+Q9Y478); assay: as above; type: biochemical
T3 construct: Recombinant full-length AMPK heterotrimeric complexes α1β1γ1, α1β2γ1, α1β2γ3, α2β1γ1, α2β2γ1 and α2β2γ3 were cloned; 6X-His (N); made in house; host or cells: E. coli BL21-CodonPlus (DE3)-RIPL
T3 sequence (P54646 whole entry): as the sequence (P54646 whole entry) above
T3 sequence (Q9Y478 whole entry): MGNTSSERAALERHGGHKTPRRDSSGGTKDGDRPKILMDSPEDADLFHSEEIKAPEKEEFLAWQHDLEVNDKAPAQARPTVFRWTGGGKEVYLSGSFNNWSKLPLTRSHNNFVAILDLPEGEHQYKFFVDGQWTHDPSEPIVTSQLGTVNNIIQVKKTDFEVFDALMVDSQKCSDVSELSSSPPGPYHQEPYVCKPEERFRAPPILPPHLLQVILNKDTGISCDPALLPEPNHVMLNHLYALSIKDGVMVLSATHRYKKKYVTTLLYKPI
T3 sequence (P54619 whole entry): as the sequence (P54619 whole entry) above
Description: as §1, §2, §3

[4] = molecular target: T4, AMPK α1β1γ1 (Homo sapiens, UniProt P54619+Q13131+Q9Y478); assay: as above; type: biochemical
T4 construct: Recombinant full-length AMPK heterotrimeric complexes α1β1γ1, α1β2γ1, α1β2γ3, α2β1γ1, α2β2γ1 and α2β2γ3 were cloned; 6X-His (N); made in house; host or cells: E. coli BL21-CodonPlus (DE3)-RIPL
T4 sequence (Q13131 whole entry): as the sequence (Q13131 whole entry) above
T4 sequence (Q9Y478 whole entry): as the sequence (Q9Y478 whole entry) above
T4 sequence (P54619 whole entry): as the sequence (P54619 whole entry) above
Description: as §1, §2, §3

[5] = molecular target: T5, AMPK α2β2γ3 (Homo sapiens, UniProt O43741+P54646+Q9UGI9); assay: as above; type: biochemical
T5 construct: Recombinant full-length AMPK heterotrimeric complexes α1β1γ1, α1β2γ1, α1β2γ3, α2β1γ1, α2β2γ1 and α2β2γ3 were cloned; 6X-His (N); made in house; host or cells: E. coli BL21-CodonPlus (DE3)-RIPL
T5 sequence (P54646 whole entry): as the sequence (P54646 whole entry) above
T5 sequence (O43741 whole entry): as the sequence (O43741 whole entry) above
T5 sequence (Q9UGI9 whole entry): as the sequence (Q9UGI9 whole entry) above
Description: as §1, §2, §3

[6] = molecular target: T6, AMPK α1β2γ1 (Homo sapiens, UniProt O43741+P54619+Q13131); assay: as above; type: biochemical
T6 construct: Recombinant full-length AMPK heterotrimeric complexes α1β1γ1, α1β2γ1, α1β2γ3, α2β1γ1, α2β2γ1 and α2β2γ3 were cloned; 6X-His (N); made in house; host or cells: E. coli BL21-CodonPlus (DE3)-RIPL
T6 sequence (Q13131 whole entry): as the sequence (Q13131 whole entry) above
T6 sequence (O43741 whole entry): as the sequence (O43741 whole entry) above
T6 sequence (P54619 whole entry): as the sequence (P54619 whole entry) above
Description: as §1, §2, §3

[7] = molecular target: T1, AMPK α1β2γ3; assay: TR-FRET allosteric activation assay; type: biochemical; conditions: 50 nM Cy5-SAMS, ATP at Km
Description: (§4) After excitation at 320 nm, the energy from the Europium donor is transferred to the Cy5 acceptor which in turn generates light at 665 nm. The intensity of the signal is proportional to the level of AMPK-mediated Cy5 substrate phosphorylation. […] Non-specific emission obtained from samples containing all the reagents except enzyme was used to normalize the values.
(§5) The basal kinase activity of the pAMPK isoforms in the absence of activator was normalized to zero (baseline) and the changes in the enzyme activity in the presence of activator at different concentrations was compared with the basal activity.

[8] = molecular target: T2, AMPK α2β2γ1; assay: TR-FRET allosteric activation assay; type: biochemical; conditions: 50 nM Cy5-SAMS, ATP at Km
Description: as §4, §5

[9] = molecular target: T4, AMPK α1β1γ1; assay: TR-FRET allosteric activation assay; type: biochemical; conditions: 50 nM Cy5-SAMS, ATP at Km
Description: as §4, §5

[10] = molecular target: T5, AMPK α2β2γ3; assay: TR-FRET allosteric activation assay; type: biochemical; conditions: 50 nM Cy5-SAMS, ATP at Km
Description: as §4, §5

[11] = molecular target: T6, AMPK α1β2γ1; assay: TR-FRET allosteric activation assay; type: biochemical; conditions: 50 nM Cy5-SAMS, ATP at Km
Description: as §4, §5

[12] = molecular target: T7, BAP-tagged AMPK α2β2γ1 (Homo sapiens, UniProt O43741+P54619+P54646); assay: SPR direct binding (Biacore)
T7 construct: Recombinant full-length AMPK heterotrimeric complexes α1β1γ1, α1β2γ1, α1β2γ3, α2β1γ1, α2β2γ1 and α2β2γ3 were cloned into a tricistronic vector system; 6X-His (N); made in house; host or cells: E. coli BL21-CodonPlus (DE3)-RIPL, co-expressed with BirA
T7 sequence (P54646 whole entry): as the sequence (P54646 whole entry) above
T7 sequence (O43741 whole entry): as the sequence (O43741 whole entry) above
T7 sequence (P54619 whole entry): as the sequence (P54619 whole entry) above
Description: (§6) SPR experiments were performed on a Biacore™ 3000 instrument (GE Healthcare). BAP-tagged AMPK isoform (α1β1γ1, α1β2γ1, α2β2γ1, α2β2γ3) was captured on to a streptavidin sensor chip to levels ranging from 4000 to 6000 RU. […] Binding responses were processed using Scrubber 2 (BioLogic Software Pty Ltd) to zero, x-align, double reference and corrected for excluded volume effect of DMSO in the data. […] The compound was injected at a flow rate of 50 μl/min with total contact time of 120 s and dissociation time of 600 s. Rate parameters (kon, koff) and corresponding dissociation constant(KD=koff/kon) were determined by globally fitting all of the experimental data to a simple 1:1 interaction model using Biaeval software (GE Healthcare). To determine nt binding, 10 concentrations with 2-fold dilutions were tested in duplicate. The highest concentration tested was 2 mM. The compound was injected at a flow rate of 50 μl/min with total contact time of 120 s and dissociation time of 300 s. Equilibrium dissociation constant (KD) was determined using a steady-state affinity algorithm available within Scrubber.
(§7) We then compared the binding of nts (AMP, ADP and ATP) to α1β1γ1, α1β2γ1, α2β2γ1 and α2β2γ3 isoforms in the presence and absence of Mg^2+ and Stau, using SPR technique. […]

[13] = molecular target: T8, BAP-tagged AMPK α1β1γ1 (Homo sapiens, UniProt P54619+Q13131+Q9Y478); assay: SPR direct binding (Biacore)
T8 construct: Recombinant full-length AMPK heterotrimeric complexes α1β1γ1, α1β2γ1, α1β2γ3, α2β1γ1, α2β2γ1 and α2β2γ3 were cloned; 6X-His (N); AviTag (BAP); made in house; host or cells: E. coli (co-expressed with BirA)
T8 sequence (Q13131 whole entry): as the sequence (Q13131 whole entry) above
T8 sequence (Q9Y478 whole entry): as the sequence (Q9Y478 whole entry) above
T8 sequence (P54619 whole entry): as the sequence (P54619 whole entry) above
Description: as §6, §7

[14] = molecular target: T8, BAP-tagged AMPK α1β1γ1; set-up: method as in PMID 25066137; conditions: reported previously; cited from earlier work
[15] = molecular target: T9, BAP-tagged AMPK α2β2γ3 (Homo sapiens, UniProt O43741+P54646+Q9UGI9); assay: SPR direct binding (Biacore)
T9 construct: Recombinant full-length AMPK heterotrimeric complexes α1β1γ1, α1β2γ1, α1β2γ3, α2β1γ1, α2β2γ1 and α2β2γ3 were cloned into a tricistronic vector system; 6X-His (N); made in house; host or cells: E. coli BL21-CodonPlus (DE3)-RIPL, co-expressed with BirA
T9 sequence (P54646 whole entry): as the sequence (P54646 whole entry) above
T9 sequence (O43741 whole entry): as the sequence (O43741 whole entry) above
T9 sequence (Q9UGI9 whole entry): as the sequence (Q9UGI9 whole entry) above
Description: as §6
(§8) We then compared the binding of nts (AMP, ADP and ATP) to α1β1γ1, α1β2γ1, α2β2γ1 and α2β2γ3 isoforms in the presence and absence of Mg^2+ and Stau, using SPR technique.

[16] = molecular target: T10, BAP-tagged AMPK α1β2γ1 (Homo sapiens, UniProt O43741+P54619+Q13131); assay: SPR direct binding (Biacore)
T10 construct: Recombinant full-length AMPK heterotrimeric complexes α1β1γ1, α1β2γ1, α1β2γ3, α2β1γ1, α2β2γ1 and α2β2γ3 were cloned into a tricistronic vector system; 6X-His (N); made in house; host or cells: E. coli BL21-CodonPlus (DE3)-RIPL, co-expressed with BirA
T10 sequence (Q13131 whole entry): as the sequence (Q13131 whole entry) above
T10 sequence (O43741 whole entry): as the sequence (O43741 whole entry) above
T10 sequence (P54619 whole entry): as the sequence (P54619 whole entry) above
Description: as §6, §8

[17] = activator concentration for half-maximal protection of pThr172/174, 10 nM AMPK, 40 nM PP2Aα, read-out: Protection pEC50 (converted)
[18] = extent of protection (Figure 7)
[19] = presence of Mg2+ and 25 nM Stau, cell spans KD1 and KD2, read-out: KD (single measurable binding affinity)
[20] = presence of Mg2+, cell spans KD1 and KD2, read-out: KD (single measurable binding affinity)
[21] = tighter site, absence of Mg2+ and Stau, read-out: KD1
[22] = weaker site, absence of Mg2+ and Stau, read-out: KD2

Structure (SMILES): N#Cc1c(O)c2c(-c3ccc(-c4ccccc4O)cc3)csc2[nH]c1=O [A769662]
- EC50 [1, 17]: > 40 µM
- protection of α-pThr172/174 from PP2Aα [1, 18]: > 70%
- EC50 [2, 17]: 2.32 µM
- protection of α-pThr172/174 from PP2Aα [2, 18]: > 70%
- enhanced protection of pThr172 compared with AMP [3]: 3 fold
- protection of α-pThr172/174 from PP2Aα [3, 18]: > 70%
- enhanced protection of pThr172 compared with AMP [4]: 10 fold
- EC50 [4, 17]: 0.046 µM
- protection of α-pThr172/174 from PP2Aα [4, 18]: > 70%
- EC50 [5, 17]: 5.6 µM
- protection of α-pThr172/174 from PP2Aα [5, 18]: > 70%
- EC50 [6, 17]: 4.7 µM
- protection of α-pThr172/174 from PP2Aα [6, 18]: > 70%
- AC50 [7]: > 40 µM
- AC50 [8]: > 40 µM
- AC50 [9]: 0.0722 µM
- AC50 [10]: > 40 µM
- AC50 [11]: > 40 µM
- SPR binding ([12]; in the presence of 150 μM AMP, 37-1000 nM): negligible; also recorded: could not detect any binding
- Kd ([13]; in the presence of 150 μM AMP, n=1, read-out: KD): 0.03 µM
- Kd [14]: 0.048 µM

Structure (SMILES): Nc1ncnc2c1ncn2[C@@H]1O[C@H](COP(=O)(O)OP(=O)(O)O)[C@@H](O)[C@H]1O [ADP]
- Kd [15, 19]: 12.5 ± 0.1 µM
- Kd [15, 20]: 19 ± 0.2 µM
- Kd [15, 21]: 11.2 ± 0.3 µM
- Kd [15, 22]: 1500 ± 200 µM
- Kd [16, 19]: 15 ± 1 µM
- Kd [16, 20]: 28.2 ± 0.3 µM
- Kd [16, 21]: 4.2 ± 0.2 µM
- Kd [16, 22]: 2600 ± 400 µM
- Kd [12, 19]: 11.9 ± 0.3 µM
- Kd [12, 20]: 22.8 ± 0.5 µM
- Kd [12, 21]: 2.47 ± 0.09 µM
- Kd [12, 22]: 2600 ± 300 µM
- Kd [13, 19]: 24.4 ± 0.4 µM
- Kd [13, 20]: 33.3 ± 0.3 µM
- Kd [13, 21]: 4.75 ± 0.08 µM
- Kd [13, 22]: 1010 ± 80 µM

From paper PMC4764975, “Probing the enzyme kinetics, allosteric modulation and activation of α1- and α2-subunit-containing AMP-activated protein kinase (AMPK) heterotrimeric complexes by pharmacological and physiological activators” (Biochemical Journal, 2016)
